Experimental data as given in patent US11006630B2, “Stable suspension concentrate formulation for water-soluble compounds” (FMC Corporation, priority 2006, dated 2021).

Test: Solubility of N-cyanomethyl-4-(trifluoromethyl)nicotinamide in salt solutions (HPLC of filtrate)
Format: physicochemical
Conditions: for Amount of N-cyanomethyl-4-(trifluoromethyl)nicotinamide in Salt Solutions After Filtration: about 18 hours at ambient temperature
Description: In order to determine the effectiveness of a salt to decrease the solubility of N-cyanomethyl-4-(trifluoromethyl)nicotinamide in aqueous solutions, the following tests were conducted:
A salt solution consisting of two grams of a salt dissolved in ten grams of water was prepared. Fifty milligrams of N-cyanomethyl-4-(trifluoromethyl)nicotinamide was added and the resulting mixture was subjected to sonication until all the N-cyanomethyl-4-(trifluoromethyl)nicotinamide had dissolved. The solutions were allowed to stand at ambient temperature for about 18 hours. Each solution was filtered and the filtrate was analyzed by HPLC to determine the amount of N-cyanomethyl-4-(trifluoromethyl)nicotinamide which remained dissolved in the water. An experiment in which no salt was added was included as a control.

With `N#CCNC(=O)c1cnccc1C(F)(F)F` [N-cyanomethyl-4-(trifluoromethyl)nicotinamide] the “Amount of N-cyanomethyl-4-(trifluoromethyl)nicotinamide in Salt Solutions After Filtration” value (“Amount” for short) (Control, no salt, 50 mg added to 10 g water) was 50.0 mg, the “Amount” value (Magnesium Sulfate (Anhydrous), 2 g in 10 g water, 50 mg added) was 7.0 mg and the “Amount” value (Sodium Sulfate, 2 g in 10 g water, 50 mg added) was 10.0 mg. For the same compound, the “Reduction of solubility in an aqueous solution” value (concentration of 20% magnesium sulfate) was “over 90%” and the “Reduction of solubility in an aqueous solution” value (sodium sulfate) was 80%.
